The values below come from patent US20140128365A1, “PYRIDONE/HYDROXYPYRIDINE 11-BETA HYDROXYSTEROID DEHYDROGENASE TYPE I INHIBITORS” (BRISTOL-MYERS SQUIBB COMPANY, priority 2012, published 2014).

Assay [1] deals with hepatic glucose production. Particulars: seven day treatment, patients with type 2 diabetes, versus placebo group; cited from earlier work.
Assay [2] deals with T1, recombinant human 11beta-HSD1 (Homo sapiens, UniProt P28845).
T1 construct: made in house; microsomal fraction used as enzyme source
In words: In vitro inhibition of recombinant human 11beta-HSD1, microsomal Scintillation Proximity Assay (SPA). The format is biochemical. Particulars: microsomes from HEK 293 EBNA cells, 250 nM [3H]-cortisone, 500 μM NADPH, pH 6.5, room temperature. As for the experimental part: The in vitro inhibition of recombinant human 11beta-HSD1 was determined as follows.
Cells were grown in DMEM (high glucose) containing MEM non-essential amino acids, L-glutamine, hygromycine B (200 ug/ml), and G418 (200 ug/ml). The cell pellets were homogenized, and the microsomal fraction was obtained by differential centrifugation. 11beta-HSD1 over expressed microsomes were used as the enzyme source for the Scintillation Proximity Assay (SPA). […] The reaction was terminated with the addition of 1 mM 18β-glycerrhentic acid. SPA reagent mixture (YSi anti-rabbit IgG, anti-cortisol antibody in 50 mM Tris, pH 8.0 containing 1% CHAPS and 1% glycerol) was added and the reaction was further incubated at room temperature over night and counted in TopCount.
In the structures set forth in Table 10, the “—O” attached to the carbon adjacent to the nitrogen in the bicyclic core is used to denote an “—OH” group as indicated in Formula I. Similarly, in the structures set forth in Table 10, the “N” adjacent to the carbon atom substituted with ═O in the bicyclic or tricyclic core is used to denote an “NH” moiety as indicated in Formula I-t.
(In general: Scintillation proximity formats need no separation of bound from free tracer.)

Read-outs that look alike come from different tables or passages of the source.

T1 sequence (P28845 whole entry): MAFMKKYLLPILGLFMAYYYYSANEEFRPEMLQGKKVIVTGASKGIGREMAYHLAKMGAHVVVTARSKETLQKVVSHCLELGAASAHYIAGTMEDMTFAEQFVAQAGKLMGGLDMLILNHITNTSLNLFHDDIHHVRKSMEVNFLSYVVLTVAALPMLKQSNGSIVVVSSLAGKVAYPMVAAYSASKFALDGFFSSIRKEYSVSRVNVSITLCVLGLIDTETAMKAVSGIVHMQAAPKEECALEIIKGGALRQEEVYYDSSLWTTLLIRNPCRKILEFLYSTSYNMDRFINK

Turning to `CC1(C)[C@@H](OC(=O)CCC(=O)O)CC[C@]2(C)[C@H]3C(=O)C=C4[C@@H]5C[C@@](C)(C(=O)O)CC[C@]5(C)CC[C@@]4(C)[C@]3(C)CC[C@@H]12` [carbenoxolone], the hepatic glucose production result in assay [1] was “decrease in hepatic glucose production”.
As for “4,7-Dichloro-1-(2-chlorobenzylthio)isoquinolin-3-ol [Example 109]”, the IC50 in assay [2] (read-out: IC50 (concentration of compound required for 50% inhibition of cortisol formation)) turned out to be 671 nM.
Take `COc1cccc(CSc2nc(O)c(C#N)c3c2CCCC3)c1` [Example 17]: the IC50 in assay [2] amounted to 461 nM.
Consider `COc1ccc(CSc2nc(O)c(C#N)c3c2CCCC3)cc1` [Example 25], for which, in assay [2], the IC50 turned out to be 467 nM.
As for `N#Cc1ccccc1CSc1nc(O)c(C#N)c2ccc(F)cc12` [Example 153], the IC50 in assay [2] stood at 1.45 nM.
On the same count and under the same terms, for `N#Cc1c(O)nc(SCc2ccccc2C(=O)O)c2c1CCCC2` [Example 34] the value was greater than 10000 nM.
